From patent US5463125A, “Phenyl alcohol amides having anticonvulsant activity” (priority 1993, dated 1995)
Like-named read-outs stand apart in the source and are kept apart here.

Experiments:
[1] = Maximal electroshock test (MES); format: in vivo, mice (male albino, NMR-1 strain); conditions: Mus musculus, ip, mice, at time of peak drug effect; 95% confidence interval
Experimental: (§1) Male albino mice (NMR-1 strain) weighing 28-32 gm were used in a mouse anticonvulsant and rotarod test. Each of the test compounds (n=0, 1 and 2) were dissolved in a 10% polyethylene glycol-400 saline solution and were administered intraperitoneally (i.p.). Convulsant agents were dissolved in saline solution, buffered with 15 mmol/l Tris-HCl, pH 7.4, except for bicuculline, which was first dissolved in 0.025N HCl, adjusting to pH 4 with a 0.15 mol/l citrate-phosphate buffer. The convulsant dose inducing seizures in 97% of mice (CD97) was determined and used in the pharmacological test. CD97 values obtained were: 85 for pentetrazol (PTZ), 15 for 4-aminopyridine (4-AP), 3.3 for bicuculline (BIC), 20 for thiosemicarbazide (TSC), and 2.0 for strychnine (STR) expressed as mg kg^-1. The time of peak drug effect was evaluated for each anticonvulsant before determining the dose-response curves. Convulsant agents were either injected subcutaneously (s.c. into the back of the neck (BIC, picrotoxin (PIC) and PTZ) or administered i.p. (4-AP, TSC and STR).
(§2) Abolition of the tonic components of the seizure was the end point, except for PTZ, where suppression of seizures of at least 5 seconds duration was considered the end point. […] The ED50, TD50 and 95% confidence intervals were calculated by the method of Litchfield and Wilcoxon. See Litchfield et al., J. Pharmacol. Exp. Ther. 96, 99 (1949).
In a maximal electroshock test, maximal seizures were induced by application of an electrical current across the brain via carclip electrodes. The stimulus parameters for mice were 30-35 mA, A.C. in pulses of 60 Hz for 200 ms. Each compound was tested at the time of peak drug effect. The dose at which the hind limb tonic seizure was blocked in 50% of the animals (ED50 value) was determined by probit analysis.
(§3) (PTZ), 4aminopyridine (4AP), bicuculline (BIC), thiosemicarbazide (TSC),

[2] = Pentetrazol (PTZ) anticonvulsant test; format: in vivo, mice (male albino, NMR-1 strain); conditions: Mus musculus, ip, 10 min, mice; PTZ s.c.; suppression of seizures of at least 5 s; for compound 1 PTZ given 10 min postdosing (footnote d)
Experimental: as §1, §2
^a) Seizures provoked by: maximal electroshock (MES), pentetrazol
as §3

[3] = 4-aminopyridine (4-AP) anticonvulsant test; format: in vivo, mice (male albino, NMR-1 strain); conditions: Mus musculus, ip, mice; 4-AP i.p.; abolition of tonic components
Experimental: as §1, §2, §3

[4] = Bicuculline (BIC) anticonvulsant test; format: in vivo, mice (male albino, NMR-1 strain); conditions: Mus musculus, ip, mice; BIC s.c.; abolition of tonic components
Experimental: as §1, §2, §3

[5] = Thiosemicarbazide (TSC) anticonvulsant test; format: in vivo, mice (male albino, NMR-1 strain); conditions: Mus musculus, ip, 10 min, mice, abolition of tonic components, for compound 1 TSC given 10 min postdosing
Experimental: as §1, §2, §3

[6] = Strychnine (STR) anticonvulsant test; format: in vivo, mice (male albino, NMR-1 strain); conditions: for ED50: Mus musculus, ip, read-out: ED50 STR
Experimental: as §1, §2
(§4) strychnine (STR) and picrotoxin (PIC).

[7] = Picrotoxin (PIC) anticonvulsant test; format: in vivo, mice (male albino, NMR-1 strain)
Experimental: as §1, §2, §4

[8] = Accelerating rotarod ataxia test; format: in vivo, mice (male albino, NMR-1 strain)
Experimental: as §1
In a rotarod test, separate groups of mice were trained to stay on an accelerating rotarod that rotated initially at 2.16 rpm, then increased in speed to reach 22.5 rpm in 4 min. The drum diameter was 2.8 cm. Trained animals were dosed with the test compound or drug vehicle and were tested at the time of peak drug effect to measure the effects of the drug on motor performance. The dose at which 50% of the animals fell off the rotarod (TD50 value) was determined by probit analysis.
^b) Accelerating rotarod.

[9] = constant speed rotarod; data obtained from NIH, ADD program; cited from earlier work
[10] = mice; cited from earlier work
[11] = cats; cited from earlier work
[12] = patients having grand mal seizures; cited from earlier work
[13] = in vivo; cited from earlier work
[14] = data obtained from NIH, ADD program; cited from earlier work
[15] = data obtained from NIH, ADD program; cited from earlier work; remark: listed apart in the source
[16] = Convulsant dose inducing seizures in 97% of mice (CD97); format: in vivo, mice (male albino, NMR-1 strain)
Experimental: as §1

[17] = Preliminary test against convulsions provoked by pentylenetetrazol; format: in vivo; conditions: 100 mg kg^-1, i.p.
Excerpt: Phenyl alcohol amide derivatives of the foregoing compounds wherein n=0 to 2 may be synthesized by substitution of the ethyl group at the center of chirality by either a methyl or phenyl group. […] Substitution of ethyl by phenyl in the n=0 and n=1 produces a loss in anticonvulsant activity.

Solubility = format: physicochemical
Experimental: The solid formed was separated by means of filtration and washed with cold benzene. This solid is the DL-HEPA that crystallizes from benzene. […]. […] Fusion point was 91°-92° C. Yield was 20%.
While still warm, the mixture was carefully neutralized with a 5% sulfuric acid solution using litmus paper. Once neutralized, the mixture was extracted with 50 ml volumes of ethyl ether. The ether was distilled in a rotating evaporator, and the white solid residue was the DL-HEPP that crystallizes with water. […] Its fusion point is 101°-102° C.

[18] = administered i.p. (4-AP, TSC, STR)

Work on `CCC(O)(CCC(N)=O)c1ccccc1` (racemic) [Compound 3, (±)-4-hydroxy-4-phenylhexanamide] yielded an ED50 [1] of 148 mg/kg, an ED50 [2] of 63 mg/kg and an ED50 [3] of 29 mg/kg. It also gave an ED50 [4] of 30 mg/kg, an ED50 [5] of 73 mg/kg and an ED50 [6] of 106 mg/kg. For the same compound, the PIC effect ([7]; at 120 mgkg^-1) was “No effects”, the TD50 ([8]; rotarod ataxia test) was 111 and the TD50 rotarod ataxia [9] was 168 mg/kg. For the same compound, the “protection against seizures provoked by bicuculline” value [10] was “protects mice against seizures”, the “protection against seizures provoked by maximal electroshock” value [10] was “protects mice against seizures” and the “protection against seizures provoked by pentetrazol” value [10] was “protects mice against seizures”. For the same compound, the “protection against hippocampal kindling” value [11] was “protects”, the clinical antiepileptic action [12] was “potent clinical antiepileptic action” and the “profile of anticonvulsant activity” value [13] was “broad profile of anticonvulsant activity”. The “ED50 MES” value [14] was 147 mg/kg and the “ED50 PTZ” value [15] was 58 mg/kg.
`CN1CCc2cc3c(cc2[C@H]1[C@@H]1OC(=O)c2c1ccc1c2OCO1)OCO3` [bicuculline] gave a CD97 ([16]; administered s.c. (PTZ, BIC)) of 3.3 mg/kg.
With `CC(O)(CC(N)=O)c1ccccc1` (stereo not drawn) [methyl group in the n=1 compound] the “anticonvulsant activity against pentylenetetrazol convulsions” value [17] was “suppresses anticonvulsant activity”.
For `CCC(O)(C(N)=O)c1ccccc1` (racemic) [Compound 1, (±)-2-hydroxy-2-phenylbutyramide], the ED50 [1] was 126 mg/kg, the ED50 [2] was 67 mg/kg and the ED50 [3] was 24 mg/kg. It also gave an ED50 [4] of 29 mg/kg, an ED50 [5] of 47 mg/kg and an ED50 [6] of 56 mg/kg. The “strychnine activity relative to the n=2 compound” value ([6]; comparison in words) was “more than twice that of the n=2 compound”, the PIC effect ([7]; at 80 mgkg^-1) was “No effects” and the TD50 rotarod ataxia ([8]; accelerating rotarod, i.p., mice, compound 2 tested 30 min postdosing) was 132 mg/kg. For the same compound, the “solubility (insoluble in)” value (Solubility) was “insoluble in cold benzene or water” and the “solubility (soluble in)” value (Solubility) was “soluble in ethyl alcohol, chloroform and hot benzene”.
For `C1CCc2nnnn2CC1` [pentetrazol], the CD97 ([16]; administered s.c. (PTZ, BIC)) was 85 mg/kg.
With `CCC(O)(CC(N)=O)c1ccccc1` (racemic) [Compound 2, (±)-3-hydroxy-3-phenylpentamide] the ED50 [1] was 144 mg/kg, the ED50 [2] was 63 mg/kg and the ED50 [3] was 19 mg/kg. The ED50 [4] was 38 mg/kg, the ED50 [5] was 43 mg/kg and the “Maximum protection, STR” value ([6]; at 100 mgkg^-1, STR administered 15 min postdosing) was 30%. For the same compound, the “Maximum protection, PIC” value ([7]; at 130 mgkg^-1, PIC administered 15 min postdosing) was 37%, the picrotoxin test activity ([7]; dose of 130 mg kg^-1) was “active” and the “neurotoxicity in rotarod ataxia test” value ([8]; in words) was “unusually low neurotoxicity”. For the same compound, the TD50 ([8]; mouse, in vivo, ip, accelerating rotarod, i.p., mice, compound 2 tested 30 min postdosing, read-out: TD50 rotarod ataxia) was 214 mg/kg, the “solubility (insoluble in)” value (Solubility) was “insoluble in cold water” and the “solubility (soluble in)” value (Solubility) was “soluble in ethyl alcohol, benzene and hot water”.
In the case of `CC(O)(CCC(N)=O)c1ccccc1` (stereo not drawn) [n=2 derivative], the “anticonvulsant activity against pentylenetetrazol convulsions” value [17] is reported as “conserves half-potency”.
In the case of `Nc1ccncc1` [4-aminopyridine], the CD97 [16, 18] is reported as 15 mg/kg.
For `NNC(N)=S` [thiosemicarbazide], the CD97 [16, 18] was 20 mg/kg.
In the case of `O=C1C[C@@H]2OCC=C3CN4CC[C@]56c7ccccc7N1[C@H]5[C@H]2[C@H]3C[C@H]46` [strychnine], the CD97 [16, 18] is reported as 2.0 mg/kg.
With `CC(O)(C(N)=O)c1ccccc1` (stereo not drawn) [n=0 derivative] the “anticonvulsant activity against pentylenetetrazol convulsions” value [17] was “retains activity”.
